What was measured:
Assay type in all cases: in vivo
Stellaria media = experiment: Test Example 4: herbicidal effect by soil treatment (symbol P); settings: for Herbicidal effect grade, P: Stellaria media: application herbicide amount 320 g/ha
Summary of the method: (§1)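 Seeds were sown in sterilized diluvial soil, covered with about 1.5 cm of soil, and the soil surface was sprayed with a water-diluted emulsion of the compound at a predetermined rate. Plants grew in a greenhouse at 25° C. to 30° C.; effects were scored visually 3 weeks after application.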

Digitaria ciliaris = experiment: Test Example 4: herbicidal effect by soil treatment (symbol F); settings: for Herbicidal effect grade, F: Digitaria ciliaris: application herbicide amount 320 g/ha
Summary of the method: as §1

soybean [1] = experiment: Test Example 4: effect on crop by soil treatment (symbol d); settings: for Effect on crop grade, d: soybean: application herbicide amount 320 g/ha
Summary of the method: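 The test used sterilized diluvial soil. Seed was set down in spots and overlaid with about 1.5 cm of soil before growth in a greenhouse kept at 25° C. to 30° C.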

Setaria viridis [2] = experiment: Test Example 4: herbicidal effect by soil treatment (symbol G); settings: for Herbicidal effect grade, G: Setaria viridis: application herbicide amount 320 g/ha
Summary of the method: as §1

rapeseed = experiment: Test Example 5: effect on crop by foliage application, plastic box (symbol g); settings: 3 weeks after application
Summary of the method: (§2)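 Foliage-application test plants come from spot sowing in sterilized diluvial soil under a soil layer of about 1.5 cm, grown at 25° C. to 30° C. in a greenhouse.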

Monochoria vaginalis = experiment: Test Example 2: herbicidal activity, application during weed generation in submerged conditions (symbol C); settings: Table 23, grade 0-5 by criteria of Test Example 1
Summary of the method: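 Compound was applied as a water-diluted emulsion into the standing water of flooded pots (4 cm) once co-sown weeds reached one to two leaves. Greenhouse temperature was 25° C. to 30° C., soil was alluvial, and each species was rated visually after 3 weeks.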

Setaria viridis [3] = experiment: Test Example 5: herbicidal effect by foliage application, plastic box (symbol G); settings: 3 weeks after application
Summary of the method: (§3)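 Visual herbicidal score, taken three weeks post-application, of seedlings sprayed on the foliage with water-diluted emulsion at a predetermined amount; plants were 14 days old, greenhouse-raised at 25° C. to 30° C.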

[4] = system: directly sowed rice plant; experiment: Test Example 3: effect on crop by foliage application, Wagner pot (symbol b); settings: for b (directly sowed rice plant) effect on crop grade: Table 24
Summary of the method: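 Wagner pot (1/10000 are), alluvial soil, submerged 0.1–0.5 cm; sown E. crus-galli var. crus-galli, L. chinensis, C. difformis, rice; greenhouse 25–30 °C.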

[5] = system: Echinochloa crus-galli var. crus-galli; experiment: Test Example 4: herbicidal effect by soil treatment (symbol H); settings: for Herbicidal effect grade, H: Echinochloa crus-galli var. crus-galli: application herbicide amount 320 g/ha
Summary of the method: as §1

[6] = system: Echinochloa crus-galli var. crus-galli; experiment: Test Example 5: herbicidal effect by foliage application, plastic box (symbol H); settings: 3 weeks after application
Summary of the method: as §3

Scirpus juncoides = experiment: Test Example 1: herbicidal activity, application before weed generation in submerged conditions (symbol B)
Summary of the method: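 Paddy pre-emergence test. Formulated emulsion, water-diluted to a predetermined rate, is applied to floodwater on sowing day; rice transplanted at 2.5 leaves. Effect read at 3 weeks on a 0–5 herbicidal-ratio scale.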

soybean [7] = experiment: Test Example 5: effect on crop by foliage application, plastic box (symbol d); settings: 3 weeks after application
Summary of the method: as §2

Veronica persica = experiment: Test Example 4: herbicidal effect by soil treatment (symbol R); settings: for Herbicidal effect grade, R: Veronica persica: application herbicide amount 320 g/ha
Summary of the method: as §1

beet = experiment: Test Example 5: effect on crop by foliage application, plastic box (symbol f); settings: 3 weeks after application
Summary of the method: as §2

[8] = application herbicide amount 320 g/ha
[9] = application herbicide amount 192 g/ha

Compound	Herbicidal effect grade, P: Stellaria media (Stellaria media)	Herbicidal effect grade, F: Digitaria ciliaris (Digitaria ciliaris)	Effect on crop grade, d: soybean (soybean [1])	Herbicidal effect grade, G: Setaria viridis (Setaria viridis [2])	g: rapeseed, effect on crop grade (rapeseed; 320 g/ha)	Herbicidal effect grade, C: Monochoria vaginalis (Monochoria vaginalis; [8])	G: Setaria viridis, herbicidal effect grade (Setaria viridis [3]; 320 g/ha)	b (directly sowed rice plant) effect on crop grade [4, 8]	Herbicidal effect grade, H: Echinochloa crus-galli var. crus-galli [5]	H: Echinochloa crus-galli var. crus-galli, herbicidal effect grade ([6]; 320 g/ha)	B (Scirpus juncoides) herbicidal effect grade (Scirpus juncoides; [8])	d: soybean, effect on crop grade (soybean [7]; 320 g/ha)	Herbicidal effect grade, R: Veronica persica (Veronica persica)	f: beet, effect on crop grade (beet; 320 g/ha)	P: Stellaria media, herbicidal effect grade (Stellaria media; 320 g/ha)	F: Digitaria ciliaris, herbicidal effect grade (Digitaria ciliaris; 320 g/ha)	d: soybean, effect grade on crop (soybean [1]; 320 g/ha)	G: Setaria viridis, herbicidal effect grade (Setaria viridis [2]; 320 g/ha)	g: rapeseed, effect on crop (criteria 0-5) (rapeseed; 320 g/ha)	G: Setaria viridis, herbicidal effect (criteria 0-5) (Setaria viridis [3]; 320 g/ha)	other results
Cc1cc(Br)cc(C)c1C1=C(O)CC(CC(=O)C2CC2)C1=O (racemic) [10-004]	0 (Herbicidal ratio of 5% or lower (almost no effect))	5 (Herbicidal ratio of 90% or more (almost completely withered))	0 (Herbicidal ratio of 5% or lower (almost no effect))	5 (Herbicidal ratio of 90% or more (almost completely withered))	4 (Herbicidal ratio of 70% or higher and lower than 90%)	0 (Herbicidal ratio of 5% or lower (almost no effect))	5 (Herbicidal ratio of 90% or more (almost completely withered))	5 (Herbicidal ratio of 90% or more (almost completely withered))	5 (Herbicidal ratio of 90% or more (almost completely withered))	5 (Herbicidal ratio of 90% or more (almost completely withered))	0 (Herbicidal ratio of 5% or lower (almost no effect))	0 (Herbicidal ratio of 5% or lower (almost no effect))	0 (Herbicidal ratio of 5% or lower (almost no effect))	0 (Herbicidal ratio of 5% or lower (almost no effect))	–	–	–	–	–	–	–
CON=C(C)CC1CC(OC(=O)C2CCCO2)=C(c2c(C)cc(C)cc2C)C1=O (stereo not shown) [1-076]	–	–	–	–	–	–	–	–	–	–	–	–	–	–	–	–	–	–	–	–	P: Stellaria media, herbicidal effect grade (Stellaria media; 192 g/ha): 0 (Herbicidal ratio of 5% or lower (almost no effect)); F: Digitaria ciliaris, herbicidal effect grade (Digitaria ciliaris; 192 g/ha): 5 (Herbicidal ratio of 90% or more (almost completely withered)); d: soybean, effect grade on crop (soybean [1]; 192 g/ha): 0 (Herbicidal ratio of 5% or lower (almost no effect)); G: Setaria viridis, herbicidal effect grade (Setaria viridis [2]; 192 g/ha): 5 (Herbicidal ratio of 90% or more (almost completely withered)); g: rapeseed, effect on crop (criteria 0-5) (rapeseed; 192 g/ha): 4 (Herbicidal ratio of 70% or higher and lower than 90%); Herbicidal effect grade, C: Monochoria vaginalis (Monochoria vaginalis; [9]): 0 (Herbicidal ratio of 5% or lower (almost no effect)); G: Setaria viridis, herbicidal effect (criteria 0-5) (Setaria viridis [3]; 192 g/ha): 5 (Herbicidal ratio of 90% or more (almost completely withered)); effect on crop b (directly sowed rice plant), grade 0-5 [4, 9]: 5 (Herbicidal ratio of 90% or more (almost completely withered)); H: Echinochloa crus-galli var. crus-galli, herbicidal effect grade ([5]; 192 g/ha): 5 (Herbicidal ratio of 90% or more (almost completely withered)); H: Echinochloa crus-galli var. crus-galli, herbicidal effect (criteria 0-5) ([6]; 192 g/ha): 5 (Herbicidal ratio of 90% or more (almost completely withered)); Herbicidal effect grade, B: Scirpus juncoides (Scirpus juncoides; [9]): 4 (Herbicidal ratio of 70% or higher and lower than 90%); d: soybean, effect on crop (criteria 0-5) (soybean [7]; 192 g/ha): 4 (Herbicidal ratio of 70% or higher and lower than 90%); R: Veronica persica, herbicidal effect grade (Veronica persica; 192 g/ha): 0 (Herbicidal ratio of 5% or lower (almost no effect)); f: beet, effect on crop (criteria 0-5) (beet; 192 g/ha): 0 (Herbicidal ratio of 5% or lower (almost no effect))
CON=C(C)CC1CC(OC(=O)N2CCOCC2)=C(c2c(C)cc(C)cc2C)C1=O (stereo not shown) [1-104]	–	–	–	–	–	0 (Herbicidal ratio of 5% or lower (almost no effect))	–	–	–	–	–	–	–	–	0 (Herbicidal ratio of 5% or lower (almost no effect))	5 (Herbicidal ratio of 90% or more (almost completely withered))	0 (Herbicidal ratio of 5% or lower (almost no effect))	5 (Herbicidal ratio of 90% or more (almost completely withered))	4 (Herbicidal ratio of 70% or higher and lower than 90%)	5 (Herbicidal ratio of 90% or more (almost completely withered))	effect on crop b (directly sowed rice plant), grade 0-5 [4, 8]: 5 (Herbicidal ratio of 90% or more (almost completely withered)); H: Echinochloa crus-galli var. crus-galli, herbicidal effect grade ([5]; 320 g/ha): 5 (Herbicidal ratio of 90% or more (almost completely withered)); H: Echinochloa crus-galli var. crus-galli, herbicidal effect (criteria 0-5) ([6]; 320 g/ha): 5 (Herbicidal ratio of 90% or more (almost completely withered)); Herbicidal effect grade, B: Scirpus juncoides (Scirpus juncoides; [8]): 4 (Herbicidal ratio of 70% or higher and lower than 90%); d: soybean, effect on crop (criteria 0-5) (soybean [7]; 320 g/ha): 1 (Herbicidal ratio of 5% or higher and lower than 20%); R: Veronica persica, herbicidal effect grade (Veronica persica; 320 g/ha): 0 (Herbicidal ratio of 5% or lower (almost no effect)); f: beet, effect on crop (criteria 0-5) (beet; 320 g/ha): 0 (Herbicidal ratio of 5% or lower (almost no effect))
CC#Cc1cc(C)c(C2=C(O)CC(CC(=NOCCOC)C3CC3)C2=O)c(C)c1 (stereo not shown) [9-021]	0 (Herbicidal ratio of 5% or lower (almost no effect))	5 (Herbicidal ratio of 90% or more (almost completely withered))	0 (Herbicidal ratio of 5% or lower (almost no effect))	5 (Herbicidal ratio of 90% or more (almost completely withered))	4 (Herbicidal ratio of 70% or higher and lower than 90%)	–	5 (Herbicidal ratio of 90% or more (almost completely withered))	5 (Herbicidal ratio of 90% or more (almost completely withered))	5 (Herbicidal ratio of 90% or more (almost completely withered))	5 (Herbicidal ratio of 90% or more (almost completely withered))	5 (Herbicidal ratio of 90% or more (almost completely withered))	1 (Herbicidal ratio of 5% or higher and lower than 20%)	3 (Herbicidal ratio of 40% or higher and lower than 70%)	0 (Herbicidal ratio of 5% or lower (almost no effect))	–	–	–	–	–	–	–
CON=C(CC1CC(O)=C(c2c(C)cc(C)cc2C)C1=O)C(F)(F)F (stereo not shown) [1-097]	–	–	–	–	–	0 (Herbicidal ratio of 5% or lower (almost no effect))	–	–	–	–	–	–	–	–	0 (Herbicidal ratio of 5% or lower (almost no effect))	0 (Herbicidal ratio of 5% or lower (almost no effect))	0 (Herbicidal ratio of 5% or lower (almost no effect))	2 (Herbicidal ratio of 20% or higher and lower than 40%)	3 (Herbicidal ratio of 40% or higher and lower than 70%)	5 (Herbicidal ratio of 90% or more (almost completely withered))	H: Echinochloa crus-galli var. crus-galli, herbicidal effect grade ([5]; 320 g/ha): 2 (Herbicidal ratio of 20% or higher and lower than 40%); H: Echinochloa crus-galli var. crus-galli, herbicidal effect (criteria 0-5) ([6]; 320 g/ha): 5 (Herbicidal ratio of 90% or more (almost completely withered)); Herbicidal effect grade, B: Scirpus juncoides (Scirpus juncoides; [8]): 0 (Herbicidal ratio of 5% or lower (almost no effect)); d: soybean, effect on crop (criteria 0-5) (soybean [7]; 320 g/ha): 3 (Herbicidal ratio of 40% or higher and lower than 70%); R: Veronica persica, herbicidal effect grade (Veronica persica; 320 g/ha): 0 (Herbicidal ratio of 5% or lower (almost no effect))

Reference: patent US11000033B2, “Ketone or oxime compound, and herbicide” (NISSAN CHEMICAL CORPORATION, priority 2014, dated 2021)
